Experimental data taken from EPA's ToxValDB 9.5 (doi:10.2903/j.efsa.2015.3943).

What was measured:
Rattus norvegicus = settings: oral
Canidae = settings: subchronic; duration: 90 days; oral; Dog Other
Oryctolagus sp. = settings: developmental; development

What does the source list for `CCCCOC(=O)[C@@H](C)Oc1ccc(Oc2ccc(C#N)cc2F)cc1` [Cyhalofop-butyl]?
LD50 (Rattus norvegicus; acute, mortality): > 5000 mg/kg-day; NOAEL (Rattus norvegicus; subchronic, duration: 90 days): 3 mg/kg-day; NOAEL (Mus musculus; chronic, duration: 78 weeks): 0.8 mg/kg-day; NOAEL (Mus musculus; subchronic, duration: 90 days, oral): 3 mg/kg-day; NOAEL (Canidae): 3 mg/kg-day; LC50 (Colinus virginianus; acute, oral, diet, mortality): > 5620 mg/kg; LD50 (Colinus virginianus; acute, oral, mortality): > 2250 mg/kg-day; NOEC (Colinus virginianus; reproduction developmental, reproduction): 80 mg/kg-day; LD50 (Anas platyrhynchos; acute, oral, unspecified, mortality): > 2250 mg/kg-day; NOEC (Anas platyrhynchos; reproductive, reproduction): 80 mg/kg-day; LC50 (Anas platyrhynchos; short-term, oral, feed, mortality): > 5620 mg/kg; NOAEL (Oryctolagus sp.): 40 mg/kg-day
